Test results from patent US20250277272A1, “CANCER TREATMENTS AND METHODS OF SELECTING SAME” (The General Hospital Corporation, priority 2016, published 2025).

Key:
WM902BR cells = assay: MTS assay with the ERK inhibitor, WM902 (Stag2 WT) and WM902BR (Stag2 mutant); assay type: cell-based; conditions: 3 days, two independent experiments
Protocol: Both WM902 (Stag2 WT) and WM902BR (Stag2 mutant) were treated with various concentrations of ERK inhibitor SCH772984 for 3 days, before MTS assays were performed. Data were from two independent experiments: Experiment A (FIG. 11A) and Experiment B (FIG. 11B).
(§1) Cell culture: All melanoma cell lines used in this study contain BRAF^Val600Glu mutations, except as otherwise indicated. A375 and SKMEL28 cells were purchased from the American Type Culture Collection (ATCC). LOX-IVMI cells were obtained from the Division of Cancer Treatment and Diagnosis. National Cancer Institute. (NCI-DCTD) repository. WM902, WM902-BR, WM983, WM983-BR and MEL1617 cell lines were obtained from Dr. Meenhard Herlyn (Wistar Institute). Immortalized Braf-null mouse embryonic fibroblasts (MEFs) were a gift from Dr. Catrin Pritchard (University of Leicester)^38. 501MEL and SKMEL103 cells, harboring NRAS mutations, were gifts from Dr. Lynda Chin (MD Anderson Cancer Center) and Dr. Jonathon Zippin (Weill Cornell Medical College), respectively. These cell lines were not authenticated by the inventors. WM902, WM983, M14, MEL1617, SKMEL28, A375, LOX-IVMI, 501MEL and SKMEL103 cells were cultured in RPMI containing 10% FBS (FBS) and penicillin-streptomycin-glutamine (PSG). HEK293 and MEF cells were maintained in Dulbecco's modified Eagle's medium (DMEM) containing 10% FBS and PSG. […]

[1] = system: M14 or SKMEL28 melanoma cells; assay: MTS assay with the ERK inhibitor, cells with inducible Stag2 knockdown; assay type: cell-based; conditions: doxycycline-induced shStag2 #60; 3 days
Protocol: M14 (FIG. 12A) or SKMEL28 (FIG. 12B) melanoma cells expressing pTRIPZ-shStag2 #60 were cultured in the presence or absence of doxycycline (Doxy) for 5 days to induce the expression of Stag2 shRNAs and treated with various concentrations of ERK inhibitor SCH772984 for 3 days, before MTS assays were performed.
as §1, with “(PSG).” for “(PSG). HEK293 and MEF cells were maintained in Dulbecco's modified Eagle's medium (DMEM) containing 10% FBS and PSG.”

[2] = system: SKMEL28, A375 and M14 cells; assay: Sensitivity of cells with inducible STAG2 shRNA to BRAFi (viability, Western blot); assay type: cell-based; conditions: inducible expression of an independent shRNA targeting STAG2
Protocol: (§2) FIGS. 2A-2H. Knock-down of STAG2 or STAG3 decreases BRAFi sensitivity in BRAF-mutant melanoma cells. FIG. 2A, Viability of A375 cells expressing cither a scrambled control shRNA or a STAG2-specific shRNA (shSTAG2 #23), after treatment with varying concentrations of dabrafenib (Dab) for 3 d. Experiment was performed three times. Data are mean±s.e.m. shSTAG2 #23 sequence: […] TTTG; SEQ ID NO. 1) scramble control shRNA sequence: ([…]: SEQ ID NO. 2) FIG. 2B, Representative Western blot analysis of A375 cells that were treated with dabrafenib for 2 hr. Experiment was performed three times. FIG. 2C, Viability of SKMEL28 cells expressing an inducible STAG2-specific shRNA (shStag2 #60; […]: SEQ ID NO. 3) and cultured in the presence (+Dox) or absence (−Dox) of doxycycline after treatment with varying concentrations of vemurafenib (VEM) for 3 d. Experiment was performed three times. FIG. 2D, Representative Western blot analysis of SKMEL30 cells that were treated with vemurafenib for 2 hr. FIG. 2E, Viability of A375 cells expressing either a scrambled control shRNA or a STAG3-specific shRNA (shSTAG3 #96), after treatment with varying concentrations of dabrafenib for 3 days. Experiment was performed 3 times. Data are mean±s.e.m. […]

ERK phosphorylation = assay: Western blot of p-ERK in A375 cells with STAG2 and/or STAG3 knockdown; assay type: cell-based; conditions: 2 hr treatment
Protocol: as §2

A375 cells = assay: MTS cell viability assay, A375 cells with STAG2 knockdown; assay type: cell-based; conditions: A375 cells expressing STAG2-specific shRNA vs scrambled control shRNA; 3 d
Protocol: FIGS. 2A-2H. […] FIG. 2A, Viability of A375 cells expressing cither a scrambled control shRNA or a STAG2-specific shRNA (shSTAG2 #23), after treatment with varying concentrations of dabrafenib (Dab) for 3 d. Experiment was performed three times. Data are mean±s.e.m. shSTAG2 #23 sequence: […] TTTG; SEQ ID NO. […] 2) FIG. 2B, Representative Western blot analysis of A375 cells that were treated with dabrafenib for 2 hr. Experiment was performed three times. […] Experiment was performed three times. FIG. 2D, Representative Western blot analysis of SKMEL30 cells that were treated with vemurafenib for 2 hr. […] Experiment was performed 3 times. Data are mean±s.e.m. […] Experiment was performed three times. […] Experiment was performed three times. […] Experiment was performed three times.
Experiment was performed 3 times. Data are mean±s.e.m. […] Experiment was performed three times. […] Experiment was performed three times. […] Experiment was performed 3 times. Data are mean±s.e.m. […] Experiment was performed three times. […] Experiment was performed three times. […] Experiment was performed 3 times. […] Experiment was performed 3 times. Data are mean±s.e.m. […] Experiment was performed 3 times.

[3] = system: BRAF-mutant melanoma cells; assay: BRAFi sensitivity after STAG3 knockdown (cell viability and ERK inhibition); assay type: cell-based; conditions: knockdown of STAG3
melanoma = assay: Melanoma patient treated with BRAFi, relapse; assay type: in vivo, human; conditions: one melanoma patient who relapsed
From the text: This mutation in STAG2 gene (c.577G>A, resulting in Asp193Asn) was subsequently confirmed by Sanger sequencing. Although the pretreatment sample contains trace amounts of the mutated allele, it is greatly enriched in the post-relapse sample (FIG. 1A). STAG2 (also known as SA2) encodes a core subunit in the cohesin complex that regulates cohesion and segregation of sister chromatids^11,12. […] Stag2 has two other paralogs in mammals, Stag1 and Stag3. […] Sanger sequencing was subsequently performed for all coding exons of STAG2 and STAG3 genes in these cell line pairs and identified a STAG2 nonsense mutation (c.3247A>T, resulting in a change of Lys1083 to a stop codon (Lys1083*)) in WM902BR cells, which was not present in the parental WM902 cells (FIG. 6A). No mutations in STAG3 were identified in this cell line panel. […] STAG3 mutations were detected in post-relapse, but not pre-treatment, samples from an additional six patients from this study (Table 2).
Patient samples and immunohistochemistry (IHC): Patients with metastatic melanoma containing BRAF^Val600 mutations (confirmed by genotyping) were enrolled in clinical trials testing treatment with a BRAF inhibitor alone or in combination with a MEK inhibitor. […] Formalin-fixed tissue was analyzed to confirm that viable tumor was present, using hematoxylin and eosin (H&E) staining. […]

In the case of O=C(Nc1ccc2[nH]nc(-c3ccncc3)c2c1)[C@@H]1CCN(CC(=O)N2CCN(c3ccc(-c4ncccn4)cc3)CC2)C1 [SCH772984], the “sensitivity of cells in MTS assay” value (WM902BR cells) is reported as “sensitive to inhibition” and the “effect of Stag2 knockdown on sensitivities in MTS assay” value [1] is reported as “does not affect their sensitivities”.
CC(C)(C)c1nc(-c2cccc(NS(=O)(=O)c3c(F)cccc3F)c2F)c(-c2ccnc(N)n2)s1 [dabrafenib] was tested, and the “sensitivity of cells to BRAFi” value [2] was “decreased the sensitivity”, the “ability to inhibit ERK phosphorylation” value (ERK phosphorylation) was “reduction in the ability” and the “sensitivity in cell viability assay (MTS)” value (A375 cells) was “lower sensitivity”. The “sensitivity with regard to cell viability and ERK inhibition” value [3] was “decreased sensitivity”.
CCCS(=O)(=O)Nc1ccc(F)c(C(=O)c2c[nH]c3ncc(-c4ccc(Cl)cc4)cc23)c1F [vemurafenib] gave a time-to-disease-progression (melanoma) of 5 months.
